In patent US20200345746A1, “Oxazine Derivative for Use in the Prevention of Alzheimer's Disease in at Risk Patents” (Novartis AG, priority 2016, published 2020):
Entries after “also recorded” stand apart in the source; their conditions may differ. Like-named read-outs stand apart in the source and are kept apart here.

Columns and labels:
C57BL/6 mice = test: Fur colour scoring, chronic 8-week dosing in wild-type mice; format: in vivo, mouse; details: 8 and 50 μmol/kg p.o. once daily, 8 weeks
Description: (§1) Compound 1 and NB-360 were formulated as a suspension. […] Vehicle: […] in 0.5% methylcellulose in water.
(§2) Body weight was taken 3 times per week (Monday, Wednesday, Friday). Subjective scoring of any hair colour changes was performed once weekly (Wednesday). Scores (% of body with grey fur): 0: No change; 1: Spots; 2: >30%; 3: >50%; 4: >75%; 5: 100%. Animals were photo-documented when fur color change was observed. Final fur color scoring was performed blinded and by a person not involved in the study.

[1] = Body weight, chronic 8-week dosing in wild-type mice; format: in vivo, mouse; details: C57BL/6 mice, 8 weeks chronic treatment
Description: as §1, §2

Aβ40 = test: Acute PK/PD in APOE4-TR mice: Aβ40 in CSF; format: in vivo, mouse; details: for Average Aβ40 CSF ± SD: n = 6
Description: Compound 1 was formulated as a suspension. Vehicle or compound was given by oral administration in a volume of 10 ml/kg once. Vehicle: 0.1% Tween80 in 0.5% Methylcellulose in water.
Analysis of Aβ40 in Mouse Brain and Aβ40 and Aβ42 in CSF

in vivo = details: APOE4-TR, mouse; for AUC(0-t): po
[2] = First-in-human study: safety and tolerability; format: in vivo; details: healthy elderly subjects
Description: The purpose of this study was to determine the single and multiple maximum tolerated dose of Compound 1 and to assess the pharmacokinetic/pharmacodynamic (PK/PD) relationship using Aβ in CSF as primary PD biomarker.

Aβ42 = test: Triton TX-100 soluble Aβ42 in APP23 mouse brain; format: in vivo; details: APP23 mice
Description: (§3) Frozen mouse forebrains were weighed and homogenized in 9 volumes (w/v) of ice-cold TBS-Complete (20 mM Tris-HCl pH 7.4, 137 mM NaCl, 1× Complete [Protease Inhibitor Cocktail Tablets: 1 836 145, Roche Diagnostics GmbH, Penzberg, Germany]) by sonication (90% duty cycle, output control 5, 40-55 pulses, [Sonifier 450, Branson]). After homogenization several 50 μl aliquots were prepared for analysis and were stored at −80° C.
Human Aβ40 and 42 in mice was determined with the Meso Scale Discovery (MSD) 96-well MULTI-ARRAY human/rodent (6E10) Aβ40/42 Assay (Meso Scale Discovery, Rockville, Md., USA). The assay was performed according to the manufacturer's instructions except for the calibration curve and the sample preparations. […]
The calibration curve was prepared in a corresponding dilution of 1% Blocker A solution spiked with synthetic Aβ1-40 peptide (1.56-100 pg/ml) except for non-transgenic mouse brain samples: In this case, the calibration curve was prepared in a correspondingly diluted APP knockout mouse forebrain spiked with synthetic Aβ1-40 peptide (1.56-100 pg/ml). […] The relative units for samples and standards were imported into SOFTmax PRO 4.0 for calculation of standard curves and quantification of samples. […]

sAPPβ (Swe) = test: Triton TX-100 soluble sAPPβ (Swe) in APP23 mouse brain; format: in vivo; details: APP23 mice
Description: as §3
Brain homogenates were extracted with 1% Triton X-100 in buffer and the resulting supernatant was considered to represent soluble forms of APP metabolites. In addition to Aβ40 and 42, we determined the N-terminal APP fragments sAPPα (direct cleavage product of α-secretase) and sAPPβ (Swe) (direct product of BACE1 cleavage). […] Since no change in the APP expression and Aβ generation is known to happen during this age, it is assumed that the increased values in the vehicle group (18-20 mo old) arise from “leakage” out of the Aβ deposits (which increase several fold, see below).

[3] = Drug-drug interaction study: PK of Compound 1 with the strong CYP3A4 inducer rifampicin; format: in vivo, human; details: healthy volunteers, with rifampicin 600 mg q.d. vs Compound 1 alone
[4] = in vivo; for AUCblood (AUC0-24 h): po
Description: Blood samples were used to analyze whole-blood compound levels and were obtained either from tail-vein during the in-life part into EDTA tubes (CB300, Sarstedt, Germany) or from trunk blood at the day of necropsy into EDTA Eppendorf tubes (Milian S A, CatNoTOM-14, Fisher Scientific, Wohlen, Switzerland), or into serum tubes (CB300Z, Sarstedt, Nümbrecht, Germany).
Brain was removed immediately after decapitation, rinsed with saline and sectioned sagitally down the midline. The left half of the cerebellum was used to analyze compound level and was placed into a glass tube (Chromacol, 125×5-SV T051, Welwyn Garden City, United Kingdom), weighed and frozen in dry-ice, the left half of the forebrain (without olfactory bulb) was used for Aβ analysis, and was frozen on a metal plate on dry ice and placed into protein Lo-bind tube (003 0108.116, Eppendorf, Hamburg, Germany).
Ventral and dorsal skin were taken to analyze compound level, weighed and frozen on dry-ice.
Brain samples were mixed with 2 volumes of KH2PO4 buffer and homogenized using the Covaris® device. Skin samples were mixed with approx. 6-fold volumes of methanol/water and homogenized using a Precellys tube. Either 30 μL of blood, brain or skin homogenate were spiked with a structurally related internal standard and subsequently mixed with an at least 6-fold excess volume acetonitrile for protein precipitation. The supernatant was injected directly into the LC/MS/MS system for analysis.
For tissue exposure, only data at 4 and 24 h were available.

## C[C@@]1(c2nc(NC(=O)c3ncc(C(F)(F)F)cc3Cl)ccc2F)CO[C@@](C)(C(F)(F)F)C(N)=N1 [Compound 1, N-(6-((3R,6R)-5-amino-3,6-dimethyl-6-(trifluoromethyl)-3,6-dihydro-2H-1,4-oxazin-3-yl)-5-fluoropyridin-2-yl)-3-chloro-5-(trifluoromethyl)picolinamide]
C57BL/6 mice
  fur colour change: no apparent fur color change detectable; also recorded: did not show signs of hair discoloration
[1]
  body weight difference compared to vehicle: No overall significant body weight difference
Aβ40; 3 μmol/kg acute
  Mini AUEC (CSF Aβ40): 26%
Aβ40; 3 μmol/kg acute p.o., 4 h
  Average Aβ40 CSF ± SD: 0.1308 ± 0.06381 pmol/mL
Aβ40; 3 μmol/kg acute p.o., 24 h
  Average Aβ40 CSF ± SD: 0.1402 ± 0.07911 pmol/mL
Aβ40; 3 μmol/kg acute, 4 h
  % reduction vs vehicle (CSF Aβ40): 28%
Aβ40; 3 μmol/kg acute, 24 h
  % reduction vs vehicle (CSF Aβ40): 23%
Aβ40; 10 μmol/kg acute
  Mini AUEC (CSF Aβ40): 37%
Aβ40; 10 μmol/kg acute p.o., 4 h
  Average Aβ40 CSF ± SD: 0.07527 ± 0.03356 pmol/mL
Aβ40; 10 μmol/kg acute p.o., 24 h
  Average Aβ40 CSF ± SD: 0.1565 ± 0.08348 pmol/mL
Aβ40; 10 μmol/kg acute, 4 h
  % reduction vs vehicle (CSF Aβ40): 59%
Aβ40; 10 μmol/kg acute, 24 h
  % reduction vs vehicle (CSF Aβ40): 14%
Aβ40; 30 μmol/kg acute
  Mini AUEC (CSF Aβ40): 77%
Aβ40; 30 μmol/kg acute p.o., 4 h
  Average Aβ40 CSF ± SD: 0.02533 ± 0.01093 pmol/mL
Aβ40; 30 μmol/kg acute p.o., 24 h
  Average Aβ40 CSF ± SD: 0.06083 ± 0.03445 pmol/mL
Aβ40; 30 μmol/kg acute, 4 h
  % reduction vs vehicle (CSF Aβ40): 86%
Aβ40; 30 μmol/kg acute, 24 h
  % reduction vs vehicle (CSF Aβ40): 67%
In vivo
  exposure reduction 4h/24h: 2-5 fold
In vivo; 3 umol/kg
  AUCbrain (AUC0-24 h): 8.67 µmol·h/kg
  AUC(0-t): 1.56 µM·h
In vivo; 10 umol/kg
  AUCbrain (AUC0-24 h): 15.83 µmol·h/kg
  AUC(0-t): 4.86 µM·h
In vivo; 30 umol/kg
  AUCbrain (AUC0-24 h): 49.82 µmol·h/kg
  AUC(0-t): 14.9 µM·h
[2]; 300 mg QD over two weeks (highest tested)
  safety and tolerability: safe and tolerated
[2]; 750 mg single dose (highest tested)
  safety and tolerability: safe and tolerated
Aβ42; 0.03 g/kg vs vehicle
  Aβ42 change vs vehicle (Triton TX-100 soluble, brain): −20.1%
Aβ42; 0.3 g/kg vs vehicle
  Aβ42 change vs vehicle (Triton TX-100 soluble, brain): −77.3%
sAPPβ (Swe); 0.03 g/kg vs vehicle
  sAPPβ (Swedish) change vs vehicle: −29.0%
sAPPβ (Swe); 0.3 g/kg vs vehicle
  sAPPβ (Swedish) change vs vehicle: −77.7%
sAPPβ (Swe); low dose 0.03 g/kg food
  reduction of soluble APP (Swe): 29%
[3]
  decrease of mean AUC of Compound 1: 5-6 fold
  decrease of mean Cmax of Compound 1: 2.5 fold
[4]; C57BL/6, mouse, 8 umol/kg
  AUCbrain (AUC0-24 h): 11.61 µmol·h/kg
  AUCblood (AUC0-24 h): 3.49 µM·h
[4]; C57BL/6, mouse, 50 umol/kg
  AUCbrain (AUC0-24 h): 88.93 µmol·h/kg
  AUCblood (AUC0-24 h): 18.53 µM·h
[4]; C57BL/6, mouse, 8 weeks
  reduction of blood exposure, last day vs beginning of experiment: around 35%
[4]; mouse
  rel. AUCdorsal skin: 12.6
  rel. AUCventral skin: 16.8
[4]; mouse, 8 umol/kg
  AUCdorsal skin (AUC0-24 h): 54.3 µmol·h/kg
  AUCventral skin (AUC0-24 h): 78.29 µmol·h/kg
[4]; mouse, 50 umol/kg
  AUCdorsal skin (AUC0-24 h): 271.6 µmol·h/kg
  AUCventral skin (AUC0-24 h): 308.7 µmol·h/kg
